Patent US20240116985A1, “STAPLED PEPTIDES AND METHODS THEREOF” (priority 2020, published 2024)

Experiment: CHI Log D procedure
Format: physicochemical
Conditions: for chromatographic logD: pH 7.4, CHI Log D; for CHI Log D: pH 7.4

Row | chromatographic logD | CHI Log D | Structure (SMILES)
1 | 1.26 |  | CC(=O)N[C@@H](Cc1ccccc1)C(=O)N[C@@H](CC(=O)O)C(=O)N[C@@H](C)C(=O)N[C@]1(C)CCCCCCC=CCOC(=O)N2CC(C(=O)N[C@@H](Cc3ccccc3)C(=O)N[C@@H](Cc3c[nH]c4ccccc34)C(=O)N[C@@H](CCC(N)=O)C(N)=O)(C2)NC(=O)[C@H](C(C)C)NC(=O)[C@H](Cc2ccccc2)NC(=O)[C@H](C)NC(=O)[C@H](C)NC(=O)[C@H](CC(=O)O)NC(=O)[C@H](CC(=O)O)NC1=O (single isomer, unassigned) [I-39, Ac-Phe-Asp-Ala-R8-Asp-Asp-Ala-Ala-Phe-Val-Az-Phe-Trp-Gln-NH2]
2 |  | 1.243 | CC(=O)N[C@@H](Cc1ccccc1)C(=O)N[C@@H](CC(=O)O)C(=O)N[C@@H](C)C(=O)N[C@]1(C)CCCCCCC=CCOC(=O)N2CC(C(=O)N[C@@H](Cc3ccccc3)C(=O)N[C@@H](Cc3c[nH]c4ccccc34)C(=O)N[C@@H](CCC(N)=O)C(N)=O)(C2)NC(=O)[C@H](C(C)C)NC(=O)[C@H](Cc2ccccc2)NC(=O)[C@H](C)NC(=O)[C@H](C)NC(=O)[C@H](CC(=O)O)NC(=O)[C@H](CC(=O)O)NC1=O (single isomer, unassigned) [I-40, Ac-Phe-Asp-Ala-R8-Asp-Asp-Ala-Ala-Phe-Val-Az-Phe-Trp-Gln-NH2]
3 | 1.31 |  | CC(=O)N[C@@H](Cc1ccccc1)C(=O)N[C@@H](CC(=O)O)C(=O)N[C@@H](C)C(=O)N[C@]1(C)CN(C)C(=O)OCC=CCCCCCC[C@@](C)(C(=O)N[C@@H](Cc2ccccc2)C(=O)N[C@@H](Cc2c[nH]c3ccccc23)C(=O)N[C@@H](CCC(N)=O)C(N)=O)NC(=O)[C@H](C(C)C)NC(=O)[C@H](Cc2ccccc2)NC(=O)[C@H](C)NC(=O)[C@H](C)NC(=O)[C@H](CC(=O)O)NC(=O)[C@H](CC(=O)O)NC1=O (single isomer, unassigned) [I-43, Ac-Phe-Asp-Ala-RgN-Asp-Asp-Ala-Ala-Phe-Val-S8-Phe-Trp-Gln-NH2]
4 |  | 1.312 | CC(=O)N[C@@H](Cc1ccccc1)C(=O)N[C@@H](CC(=O)O)C(=O)N[C@@H](C)C(=O)N[C@]1(C)CN(C)C(=O)OCC=CCCCCCC[C@@](C)(C(=O)N[C@@H](Cc2ccccc2)C(=O)N[C@@H](Cc2c[nH]c3ccccc23)C(=O)N[C@@H](CCC(N)=O)C(N)=O)NC(=O)[C@H](C(C)C)NC(=O)[C@H](Cc2ccccc2)NC(=O)[C@H](C)NC(=O)[C@H](C)NC(=O)[C@H](CC(=O)O)NC(=O)[C@H](CC(=O)O)NC1=O (single isomer, unassigned) [I-44, Ac-Phe-Asp-Ala-RgN-Asp-Asp-Ala-Ala-Phe-Val-S8-Phe-Trp-Gln-NH2]
5 |  | 1.205 | CC(=O)N[C@@H](Cc1ccccc1)C(=O)N[C@@H](CC(=O)O)C(=O)N[C@@H](C)C(=O)N[C@]1(C)CN(C)C(=O)OCC=CCCCCC[C@@](C)(C(=O)N[C@@H](Cc2ccccc2)C(=O)N[C@@H](Cc2c[nH]c3ccccc23)C(=O)N[C@@H](CCC(N)=O)C(N)=O)NC(=O)[C@H](C(C)C)NC(=O)[C@H](Cc2ccccc2)NC(=O)[C@H](C)NC(=O)[C@H](C)NC(=O)[C@H](CC(=O)O)NC(=O)[C@H](CC(=O)O)NC1=O (single isomer, unassigned) [I-46, Ac-Phe-Asp-Ala-RgN-Asp-Asp-Ala-Ala-Phe-Val-S7-Phe-Trp-Gln-NH2]
6 | 1.5 |  | CC(=O)N[C@@H](Cc1ccccc1)C(=O)N[C@@H](CC(=O)O)C(=O)N[C@@H](C)C(=O)N[C@]1(C)CCCCCCC=CCOC(=O)N2CC[C@@](C(=O)N[C@@H](Cc3ccccc3)C(=O)N[C@@H](Cc3c[nH]c4ccccc34)C(=O)N[C@@H](CCC(N)=O)C(N)=O)(C2)NC(=O)[C@H](C(C)C)NC(=O)[C@H](Cc2ccccc2)NC(=O)[C@H](C)NC(=O)[C@H](C)NC(=O)[C@H](CCC(N)=O)NC(=O)[C@H](CC(=O)O)NC1=O (single isomer, unassigned) [I-58, Ac-Phe-Asp-Ala-R8-Asp-Gln-Ala-Ala-Phe-Val-PyrS-Phe-Trp-Gln-NH2]
7 | 0.981 |  | CC(=O)N[C@@H](Cc1ccccc1)C(=O)N[C@@H](CC(=O)O)C(=O)N[C@@H](C)C(=O)N[C@]1(C)CCCCCCC=CCOC(=O)N2CC[C@@](C(=O)N[C@@H](Cc3ccc(O)cc3)C(=O)N[C@@H](Cc3c[nH]c4ccccc34)C(=O)N[C@@H](CCC(N)=O)C(N)=O)(C2)NC(=O)[C@H](C(C)C)NC(=O)[C@H](Cc2ccccc2)NC(=O)[C@H](C)NC(=O)[C@H](C)NC(=O)[C@H](CC(=O)O)NC(=O)[C@H](CC(=O)O)NC1=O (single isomer, unassigned) [I-62, Ac-Phe-Asp-Ala-R8-Asp-Asp-Ala-Ala-Phe-Val-PyrS-Tyr-Trp-Gln-NH2]

Continued, molecule first:

Row | Structure (SMILES) | chromatographic logD | CHI Log D
8 | CC(=O)N[C@@H](Cc1ccccc1)C(=O)N[C@@H](CC(=O)O)C(=O)N[C@@H](C)C(=O)N[C@]1(C)CCN(C)C(=O)OCC=CCC[C@@](C)(C(=O)N[C@@H](Cc2ccccc2)C(=O)N[C@@H](Cc2c[nH]c3ccccc23)C(=O)N[C@@H](CCC(N)=O)C(N)=O)NC(=O)[C@H](C(C)C)NC(=O)[C@H](Cc2ccccc2)NC(=O)[C@H](C)NC(=O)[C@H](C)NC(=O)[C@H](CC(=O)O)NC(=O)[C@H](CC(=O)O)NC1=O (single isomer, unassigned) [I-41, Ac-Phe-Asp-Ala-RdN-Asp-Asp-Ala-Ala-Phe-Val-S4-Phe-Trp-Gln-NH2] | 1.09 | 
9 | CC(=O)N[C@@H](Cc1ccccc1)C(=O)N[C@@H](CC(=O)O)C(=O)N[C@@H](C)C(=O)N[C@]1(C)CN(C)C(=O)OCC=CCCCCC[C@@](C)(C(=O)N[C@@H](Cc2ccccc2)C(=O)N[C@@H](Cc2c[nH]c3ccccc23)C(=O)N[C@@H](CCC(N)=O)C(N)=O)NC(=O)[C@H](C(C)C)NC(=O)[C@H](Cc2ccccc2)NC(=O)[C@H](C)NC(=O)[C@H](C)NC(=O)[C@H](CC(=O)O)NC(=O)[C@H](CC(=O)O)NC1=O (single isomer, unassigned) [I-45, Ac-Phe-Asp-Ala-RgN-Asp-Asp-Ala-Ala-Phe-Val-S7-Phe-Trp-Gln-NH2] | 1.21 | 
10 | CC(=O)N[C@@H](Cc1ccccc1)C(=O)N[C@@H](CC(=O)O)C(=O)N[C@]1(C)CCCCCCC=CCCC[C@@](C)(C(=O)N[C@@H](C)C(=O)N[C@@H](Cc2ccccc2)C(=O)N[C@@H](Cc2c[nH]c3ccccc23)C(=O)N[C@@H](CCC(N)=O)C(N)=O)NC(=O)[C@H](Cc2ccccc2)NC(=O)[C@H](C)NC(=O)[C@H](C)NC(=O)[C@H](CC(=O)O)NC(=O)[C@H](CC(=O)O)NC(=O)[C@H](C)NC1=O (single isomer, unassigned) [I-47, Ac-Phe-Asp-R8-Ala-Asp-Asp-Ala-Ala-Phe-S5-Ala-Phe-Trp-Gln-NH2] | 1.28 | 
11 | CC(=O)N[C@@H](Cc1ccccc1)C(=O)N[C@@H](CC(=O)O)C(=O)N[C@]1(C)CCCCCCC=CCCC[C@@](C)(C(=O)N[C@@H](C)C(=O)N[C@@H](Cc2ccccc2)C(=O)N[C@@H](Cc2c[nH]c3ccccc23)C(=O)N[C@@H](CCC(N)=O)C(N)=O)NC(=O)[C@H](Cc2ccccc2)NC(=O)[C@H](C)NC(=O)[C@H](C)NC(=O)[C@H](CC(=O)O)NC(=O)[C@H](CC(=O)O)NC(=O)[C@H](C)NC1=O (single isomer, unassigned) [I-48, Ac-Phe-Asp-R8-Ala-Asp-Asp-Ala-Ala-Phe-S5-Ala-Phe-Trp-Gln-NH2] |  | 1.37
12 | CC(=O)N[C@@H](Cc1ccccc1)C(=O)N[C@@H](CC(=O)O)C(=O)N[C@]1(C)CCN(C)C(=O)OCC=CCCCCC[C@@](C)(C(=O)N[C@@H](C)C(=O)N[C@@H](Cc2ccccc2)C(=O)N[C@@H](Cc2c[nH]c3ccccc23)C(=O)N[C@@H](CCC(N)=O)C(N)=O)NC(=O)[C@H](Cc2ccccc2)NC(=O)[C@H](C)NC(=O)[C@H](C)NC(=O)[C@H](CC(=O)O)NC(=O)[C@H](CC(=O)O)NC(=O)[C@H](C)NC1=O (single isomer, unassigned) [I-49, Ac-Phe-Asp-RdN-Ala-Asp-Asp-Ala-Ala-Phe-S7-Ala-Phe-Trp-Gln-NH2] | 1.18 | 
13 | CC(=O)N[C@@H](Cc1ccccc1)C(=O)N[C@@H](CC(=O)O)C(=O)N[C@]1(C)CCN(C)C(=O)OCC=CCCCCC[C@@](C)(C(=O)N[C@@H](C)C(=O)N[C@@H](Cc2ccccc2)C(=O)N[C@@H](Cc2c[nH]c3ccccc23)C(=O)N[C@@H](CCC(N)=O)C(N)=O)NC(=O)[C@H](Cc2ccccc2)NC(=O)[C@H](C)NC(=O)[C@H](C)NC(=O)[C@H](CC(=O)O)NC(=O)[C@H](CC(=O)O)NC(=O)[C@H](C)NC1=O (single isomer, unassigned) [I-50, Ac-Phe-Asp-RdN-Ala-Asp-Asp-Ala-Ala-Phe-S7-Ala-Phe-Trp-Gln-NH2] |  | 1.201
14 | CC(=O)N[C@@H](Cc1ccccc1)C(=O)N[C@@H](CC(=O)O)C(=O)N[C@@H](C)C(=O)N[C@]1(C)CCCCCCC=CCOC(=O)N2CC[C@@](C(=O)N[C@@H](Cc3ccccc3)C(=O)N[C@@H](Cc3c[nH]c4ccccc34)C(=O)N[C@@H](CCC(N)=O)C(N)=O)(C2)NC(=O)[C@H](C(C)C)NC(=O)[C@H](Cc2ccccc2)NC(=O)[C@H](C)NC(=O)[C@H](C)NC(=O)[C@@](C)(Cc2ccccc2)NC(=O)[C@H](CC(=O)O)NC1=O (single isomer, unassigned) [I-56, Ac-Phe-Asp-Ala-R8-Asp-aMeDF-Ala-Ala-Phe-Val-PyrS-Phe-Trp-Gln-NH2] | 2.16 | 
15 | CC(=O)N[C@@H](Cc1ccccc1)C(=O)N[C@@H](CC(=O)O)C(=O)N[C@@H](C)C(=O)N[C@]1(C)CCCCCCC=CCOC(=O)N2CC[C@@](C(=O)N[C@@H](Cc3ccccc3)C(=O)N[C@@H](Cc3c[nH]c4ccccc34)C(=O)N[C@@H](CCC(N)=O)C(N)=O)(C2)NC(=O)[C@H](C(C)C)NC(=O)[C@H](Cc2ccccc2)NC(=O)[C@H](C)NC(=O)[C@H](C)NC(=O)[C@@](C)(Cc2ccccc2)NC(=O)[C@H](CC(=O)O)NC1=O (single isomer, unassigned) [I-57, Ac-Phe-Asp-Ala-R8-Asp-aMeDF-Ala-Ala-Phe-Val-PyrS-Phe-Trp-Gln-NH2] |  | 2.152
16 | CC(=O)N[C@@H](Cc1ccccc1)C(=O)N[C@@H](CC(=O)O)C(=O)N[C@@H](C)C(=O)N[C@]1(C)CCCCCCC=CCOC(=O)N2CC[C@@](C(=O)N[C@@H](CC3CCCCC3)C(=O)N[C@@H](Cc3c[nH]c4ccccc34)C(=O)N[C@@H](CCC(N)=O)C(N)=O)(C2)NC(=O)[C@H](C(C)C)NC(=O)[C@H](Cc2ccccc2)NC(=O)[C@H](C)NC(=O)[C@H](C)NC(=O)[C@H](CC(=O)O)NC(=O)[C@H](CC(=O)O)NC1=O (single isomer, unassigned) [I-60, Ac-Phe-Asp-Ala-R8-Asp-Asp-Ala-Ala-Phe-Val-PyrS-Cha-Trp-Gln-NH2] | 1.36 | 
